Test results taken from US20240383904A1, “HETEROCYCLIC COMPOUNDS” (Hoffmann-La Roche Inc., priority 2021, published 2024).
Blank lines part the entries; values can stand above or below the compound they belong to.

Target: T1, MAGL (Homo sapiens, UniProt Q99685)
T1 sequence (Q99685 1-303): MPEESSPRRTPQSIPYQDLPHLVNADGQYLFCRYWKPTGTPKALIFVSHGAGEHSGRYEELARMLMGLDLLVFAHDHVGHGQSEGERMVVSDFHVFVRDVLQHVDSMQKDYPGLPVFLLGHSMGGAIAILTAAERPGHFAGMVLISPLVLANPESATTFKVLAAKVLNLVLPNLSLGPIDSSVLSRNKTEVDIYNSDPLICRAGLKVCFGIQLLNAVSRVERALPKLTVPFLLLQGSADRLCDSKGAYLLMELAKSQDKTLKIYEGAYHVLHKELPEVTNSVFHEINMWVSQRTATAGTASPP
Assay: 2-AG assay: MAGL inhibitory activity by hydrolysis of 2-arachidonoylglycerol to arachidonic acid, followed by mass spectrometry
Format: biochemical

[1] = 15 min preincubation, 30 min reaction at RT, 8 μM 2-arachidonoylglycerol

IC50 [1]: 1.68 nM
SMILES: O=C1NC2(CO1)CN(C(=O)N1CC3(CCN(Cc4ccc(C(F)(F)F)cn4)CC3)C1)C2 [Example 149, 2-[7-[[5-(trifluoromethyl)-2-pyridyl]methyl]-2,7-diazaspiro[3.5]nonane-2-carbonyl]-7-oxa-2,5-diazaspiro[3.4]octan-6-one]

IC50 [1]: 88.6 nM
SMILES: O=C1NC2(CO1)CN(C(=O)N1CC3(CC(C(=O)NC4(C(F)(F)F)CC4)C3)C1)C2 [Example 67, 2-(6-keto-7-oxa-2,5-diazaspiro[3.4]octane-carbonyl)-N-[1-(trifluoromethyl)cyclopro-pyl]-2-azaspiro[3.3]heptane-6-carboxamide]

IC50 [1]: 0.37 nM
SMILES: O=C1NC2(CO1)CN(C(=O)N1CC3(CCC(Nc4ccc(C(F)(F)F)cn4)CC3)C1)C2 [Example 95, 2-[7-[[5-(trifluoromethyl)-2-pyridyl]amino]-2-azaspiro[3.5]nonane-2-carbonyl]-7-oxa-2,5-diazaspiro[3.4]octan-6-one]

IC50 [1]: 0.55 nM
SMILES: N#Cc1cc(C(F)(F)F)ncc1C[C@@H]1CCC2(C1)CN(C(=O)N1CC3(COC(=O)N3)C1)C2 [Example 213, 5-[[(6R)-2-(6-oxo-7-oxa-2,5-diazaspiro[3.4]octane-2-carbonyl)-2-azaspiro[3.4]octan-6-yl]methyl]-2-(trifluoromethyl)pyridine-4-carbonitrile]

IC50 [1]: 0.57 nM
SMILES: O=C1NC2(CO1)CN(C(=O)N1CC3(CCC(Cc4cnc(C(F)(F)F)cn4)CC3)C1)C2 [Example 112, 2-[7-[[5-(trifluoromethyl)pyrazin-2-yl]methyl]-2-azaspiro[3.5]nonane-2-carbonyl]-7-oxa-2,5-diazaspiro[3.4]octan-6-one]

IC50 [1]: 0.83 nM
SMILES: O=C1NC2(CO1)CN(C(=O)N1CC3(CCC(Oc4cnc(C(F)(F)F)cn4)CC3)C1)C2 [Example 69, 2-[7-[5-(trifluoromethyl)pyrazin-2-yl]oxy-2-azaspiro[3.5]nonane-2-carbonyl]-7-oxa-2,5-diazaspiro[3.4]octan-6-one]

IC50 [1]: 3.07 nM
SMILES: O=C1CCC2(CN(C(=O)N3CC4(CCN(Cc5ccc(C(F)(F)F)nc5)C4)C3)C2)N1 [Example 152, 2-[7-[[6-(trifluoromethyl)-3-pyridyl]methyl]-2,7-diazaspiro[3.4]octane-2-carbonyl]-2,5-diazaspiro[3.4]octan-6-one]

IC50 (unit nM): < 5 nM
SMILES: O=C1NC2(CO1)CN(C(=O)N1CC3(CC(Cc4ccc(C(F)(F)F)cc4F)C3)C1)C2 [Example 24, 2-[6-[2-fluoro-4-(trifluoromethyl)benzyl]-2-azaspiro[3.3]heptane-2-carbonyl]-7-oxa-2,5-diazaspiro[3.4]octan-6-one]

More lines, now with the values behind:

SMILES: CS(=O)(=O)c1cccc(CC2CC3(C2)CN(C(=O)N2CC4(CCC(=O)N4)C2)C3)c1 [Example 9, 2-[6-(3-mesylbenzyl)-2-azaspiro[3.3]heptane-2-carbonyl]-2,5-diazaspiro[3.4]octan-6-one]
IC50 [1]: 20.5 nM

SMILES: CS(=O)(=O)c1cc(CC2CC3(C2)CN(C(=O)N2CC4(CCCC(=O)N4)C2)C3)cc(C(F)(F)F)c1 [Example 268, 2-[6-[[3-methylsulfonyl-5-(trifluoromethyl)phenyl]methyl]-2-azaspiro[3.3]heptane-2-carbonyl]-2,5-diazaspiro[3.5]nonan-6-one]
IC50 [1]: 301 nM

SMILES: CS(=O)(=O)c1cc(C(F)(F)F)ccc1CC1CC2(C1)CN(C(=O)N1CC3(CCC(=O)N3)C1)C2 [Example 35, 2-[6-[2-mesyl-4-(trifluoromethyl)benzyl]-2-azaspiro[3.3]heptane-2-carbonyl]-2,5-diazaspiro[3.4]octan-6-one]
IC50 [1]: 1.43 nM

SMILES: O=C1CCC2(CN(C(=O)N3CC4(CC(Cc5ccc(OC(F)(F)F)nc5)C4)C3)C2)N1 [Example 179, 2-[6-[[6-(trifluoromethoxy)-3-pyridyl]methyl]-2-azaspiro[3.3]heptane-2-carbonyl]-2,5-diazaspiro[3.4]octan-6-one]
IC50 [1]: 1.66 nM

SMILES: O=C1CCC2(CN(C(=O)N3CC4(CC(Cc5ccc(S(=O)(=O)C(F)(F)F)cn5)C4)C3)C2)N1 [Example 262, 2-[6-[[5-(trifluoromethylsulfonyl)-2-pyridyl]methyl]-2-azaspiro[3.3]heptane-2-carbonyl]-2,5-diazaspiro[3.4]octan-6-one]
IC50 [1]: 1.06 nM

SMILES: O=C1NC2(CO1)CN(C(=O)N1CC3(C1)CN(S(=O)(=O)c1cccc(OC(F)(F)F)c1)C3)C2 [Example 192, 2-[2-[3-(trifluoromethoxy)phenyl]sulfonyl-2,6-diazaspiro[3.3]heptane-6-carbonyl]-7-oxa-2,5-diazaspiro[3.4]octan-6-one]
IC50 [1]: 14.7 nM

SMILES: O=C1COCC2(CN(C(=O)N3CC4(CC(Cc5cncc(F)c5)C4)C3)C2)N1 [Example 180, 2-[6-[(5-fluoro-3-pyridyl)methyl]-2-azaspiro[3.3]heptane-2-carbonyl]-8-oxa-2,5-diazaspiro[3.5]nonan-6-one]
IC50 [1]: 202 nM

SMILES: O=C1CCC2(CN(C(=O)N3CC4(CC(Cc5ccc(OC(F)(F)F)cn5)C4)C3)C2)N1 [Example 6, 2-[6-[[5-(trifluoromethoxy)-2-pyridyl]methyl]-2-azaspiro[3.3]heptane-2-carbonyl]-2,5-diazaspiro[3.4]octan-6-one]
IC50 [1]: 0.47 nM

SMILES: O=C1COCC2(CN(C(=O)N3CC4(CC(Cc5ccc(F)cc5F)C4)C3)C2)N1 [Example 137, 2-[6-(2,4-difluorobenzyl)-2-azaspiro[3.3]heptane-2-carbonyl]-8-oxa-2,5-diazaspiro[3.5]nonan-6-one]
IC50 [1]: 0.97 nM

SMILES: N#Cc1cc(CC2CC3(C2)CN(C(=O)N2CC4(CCCC(=O)N4)C2)C3)cnc1C(F)(F)F [Example 272, 5-[[2-(6-oxo-2,5-diazaspiro[3.5]nonane-2-carbonyl)-2-azaspiro[3.3]heptan-6-yl]methyl]-2-(trifluoromethyl)pyridine-3-carbonitrile]
IC50 [1]: 795 nM

SMILES: O=C1CCC2(CN(C(=O)N3CC4(CC(Cc5cc(C(F)(F)F)ncn5)C4)C3)C2)N1 [Example 312, 2-[6-[[6-(trifluoromethyl)pyrimi-din-4-yl]methyl]-2-azaspiro[3.3]heptane-2-carbonyl]-2,5-diazaspiro[3.4]octan-6-one]
IC50 [1]: 54.9 nM

SMILES: N=S(=O)(c1ccc(OC2CC3(C2)CN(C(=O)N2CC4(CCC(=O)N4)C2)C3)cc1)C(F)(F)F (stereo not drawn) [Example 335]
IC50 [1]: 101 nM

SMILES: O=C1CCC2(CN(C(=O)N3CC4(CC(Cc5n[nH]c(C(F)(F)F)n5)C4)C3)C2)N1 [Example 333, 2-[6-[[5-(trifluoromethyl)-1H-1,2,4-triazol-3-yl]methyl]-2-azaspiro[3.3]heptane-2-carbonyl]-2,5-diazaspiro[3.4]octan-6-one]
IC50 [1]: 88.1 nM

SMILES: O=C1CCC2(CN(C(=O)N3CC4(CC(Cc5ccc6[nH]ncc6n5)C4)C3)C2)N1 [Example 321, 2-[6-(1H-pyrazolo[4,3-b]pyridin-5-ylmethyl)-2-azaspiro[3.3]heptane-2-carbonyl]-2,5-diazaspiro[3.4]octan-6-one]
IC50 [1]: 88.2 nM

SMILES: O=C1COCC2(CN(C(=O)N3CC4(CC(NS(=O)(=O)c5cccc(C(F)(F)F)c5)C4)C3)C2)N1 [Example 208, N-[2-(6-oxo-8-oxa-2,5-diazaspiro[3.5]nonane-2-carbonyl)-2-azaspiro[3.3]heptan-6-yl]-3-(trifluoromethyl)benzene-sulfonamide]
IC50 [1]: 67.1 nM

SMILES: Cn1cc(CC2CC3(C2)CN(C(=O)N2CC4(CCC(=O)N4)C2)C3)c(C(F)(F)F)n1 [Example 169, 2-[6-[[1-methyl-3-(trifluoromethyl)pyrazol-4-yl]methyl]-2-azaspiro[3.3]heptane-2-carbonyl]-2,5-diazaspiro[3.4]octan-6-one]
IC50 [1]: 2.35 nM
